# Laboratory results taken from patent US20120321621A1, “INHIBITION OF FcyR-MEDIATED PHAGOCYTOSIS WITH REDUCED IMMUNOGLOBULIN PREPARATIONS” (priority 2008, published 2012).
# Experiments:
# [1] = test system: FcγR-mediated phagocytosis of anti-D-sensitized R2R2 RBCs by monocyte-macrophages; assay: Monocyte monolayer assay (MMA): inhibition of phagocytosis of anti-D-sensitized R2R2 RBCs; type: cell-based, human; conditions: for inhibition of phagocytosis by chemical alone after dialysis: after extensive dialysis
# Text: Residual and phagocytosed RBCs were distinguished by relative differences in refracted light under phase-contrast microscopy.
# [2] = test system: FcγR-mediated phagocytosis of anti-D-sensitized R2R2 RBCs by monocyte-macrophages; conditions: 10^−4M, MMA (Rampersad et al.); cited from earlier work
Compound,inhibition of phagocytosis by chemical alone after dialysis [1],"inhibition of phagocytosis by undialyzed chemical alone ([1]; undialyzed, 10^−5 or 10^−3 mol per L)",inhibition of FcγR-mediated phagocytosis by chemical alone [2],"inhibition at 10000 µM ([1]; Homo sapiens, Monocyte, free, undialyzed, 10^−2M, read-out: inhibition of phagocytosis by free chemical)"
C[CH2][Hg][S]c1ccccc1C(=O)[O-].[Na+] [thimerosal],no longer inhibits phagocytosis,100%,–,–
Cc1ccc(S(=O)(=O)CS)cc1 [p-toluenesulfonylmethyl mercaptan],not able to inhibit phagocytosis,–,approximately 70%,–
"O[C@H](CS)[C@H](O)CS (racemic) [DTT, Dithiothreitol]",no inhibition,–,–,~30%
